# Entries after “also recorded” stand apart in the source; their conditions may differ. Read-outs that look alike come from different tables or passages of the source.
# Key:
# Format in all cases: cell-based
# human ERβ (full-length) = molecular target: T1, human ERβ (full-length) (Homo sapiens, UniProt Q92731); test: U2OS-ERβ/3xERE luciferase reporter cell line (full-length receptor); details: for EC50: read-out: Log EC50 (converted)
# T1 construct: expression vectors encoding full-length steroid receptors: pcDNA3-hERα and pcDNA3-ERβ; expressed in transfected cells; host or cells: U2OS
# PR-LBD fused to Gal4-DBD = molecular target: T2, PR-LBD fused to Gal4-DBD (Homo sapiens, UniProt P06401); test: U2OS-PR-LBD/9xGal4UAS luciferase reporter cell line; details: for Log EC50: agonist mode, 20 h, log10 of molar EC50, mean ± SEM
# T2 construct: PR-LBD region was PCR amplified using the following primer combination; host or cells: U2OS
# T2 sequence (P06401 679-913 limits assumed): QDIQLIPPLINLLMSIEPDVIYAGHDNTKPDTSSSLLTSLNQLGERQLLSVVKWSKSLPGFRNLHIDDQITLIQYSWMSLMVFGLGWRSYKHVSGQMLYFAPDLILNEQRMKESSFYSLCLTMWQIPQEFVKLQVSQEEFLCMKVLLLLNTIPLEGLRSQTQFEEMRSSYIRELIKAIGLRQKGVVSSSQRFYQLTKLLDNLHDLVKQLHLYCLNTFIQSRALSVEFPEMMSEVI
# MR-LBD fused to Gal4-DBD = molecular target: T3, MR-LBD fused to Gal4-DBD (Homo sapiens, UniProt P08235); test: U2OS-MR-LBD/9xGal4UAS luciferase reporter cell line; details: for Log EC50: agonist mode, 20 h, log10 of molar EC50, mean ± SEM; for Log EC50 / Log IC50: MR-LBD/9xGal4UAS; for Log IC50: antagonist mode, in the presence of 1 nM aldosterone, log10 of molar IC50, mean ± SEM
# T3 construct: MR-LBD was cloned by RT-PCR from total RNA isolated from HEK293 cells; expressed in transfected cells; host or cells: U2OS
# T3 sequence (P08235 726-964 limits assumed): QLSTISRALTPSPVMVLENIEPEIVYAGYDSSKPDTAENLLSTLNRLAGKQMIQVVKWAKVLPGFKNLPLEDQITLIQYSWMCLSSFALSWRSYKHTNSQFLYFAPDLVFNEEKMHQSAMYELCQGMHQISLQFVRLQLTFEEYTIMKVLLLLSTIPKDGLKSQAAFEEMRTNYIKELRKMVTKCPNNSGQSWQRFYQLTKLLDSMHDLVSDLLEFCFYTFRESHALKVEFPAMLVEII
# [1] = molecular target: T4, ERβ-LBD fused to Gal4-DBD (Homo sapiens, UniProt Q92731); test: U2OS-ERβ-LBD/9xGal4UAS luciferase reporter cell line; details: for EC50: read-out: Log EC50 (converted)
# T4 construct: region comprising ERβ-LBD and a piece of the hinge region; expressed in transfected cells; host or cells: U2OS
# [2] = molecular target: T5, AR-LBD fused to Gal4-DBD (co-expressed with full-length AR) (Homo sapiens, UniProt P10275); test: U2OS-AR-LBD/9xGal4UAS luciferase reporter cell line; details: for Log EC50: agonist mode, AR-LBD/9xGal4UAS, 20 h, log10 of molar EC50, mean ± SEM
# T5 construct: the following primers were used for the amplification of the LBD region; expressed in transfected cells; host or cells: U2OS
# T5 sequence (P10275 669-900 limits assumed): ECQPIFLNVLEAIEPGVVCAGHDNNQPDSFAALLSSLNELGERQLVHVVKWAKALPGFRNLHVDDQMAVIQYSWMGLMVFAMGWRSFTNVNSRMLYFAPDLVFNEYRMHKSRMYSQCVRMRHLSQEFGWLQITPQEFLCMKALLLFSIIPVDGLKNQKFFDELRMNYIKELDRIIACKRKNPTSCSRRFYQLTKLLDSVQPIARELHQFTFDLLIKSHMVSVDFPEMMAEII
# human AR (full-length) = molecular target: T6, human AR (full-length) (Homo sapiens, UniProt P10275); test: U2OS-AR/3xGRE luciferase reporter cell line (full-length receptor); details: for Log EC50: agonist mode, 20 h, log10 of molar EC50, mean ± SEM; for Log EC50 / Log IC50: AR/3xGRE; for Log IC50: antagonist mode, in the presence of 0.05 nM dihydrotestosterone, log10 of molar IC50, mean ± SEM
# T6 construct: expression vectors encoding full-length steroid receptors: pcDNA3-hAR and pcDNA3-hGR; host or cells: U2OS
# T6 sequence (P10275 1-920): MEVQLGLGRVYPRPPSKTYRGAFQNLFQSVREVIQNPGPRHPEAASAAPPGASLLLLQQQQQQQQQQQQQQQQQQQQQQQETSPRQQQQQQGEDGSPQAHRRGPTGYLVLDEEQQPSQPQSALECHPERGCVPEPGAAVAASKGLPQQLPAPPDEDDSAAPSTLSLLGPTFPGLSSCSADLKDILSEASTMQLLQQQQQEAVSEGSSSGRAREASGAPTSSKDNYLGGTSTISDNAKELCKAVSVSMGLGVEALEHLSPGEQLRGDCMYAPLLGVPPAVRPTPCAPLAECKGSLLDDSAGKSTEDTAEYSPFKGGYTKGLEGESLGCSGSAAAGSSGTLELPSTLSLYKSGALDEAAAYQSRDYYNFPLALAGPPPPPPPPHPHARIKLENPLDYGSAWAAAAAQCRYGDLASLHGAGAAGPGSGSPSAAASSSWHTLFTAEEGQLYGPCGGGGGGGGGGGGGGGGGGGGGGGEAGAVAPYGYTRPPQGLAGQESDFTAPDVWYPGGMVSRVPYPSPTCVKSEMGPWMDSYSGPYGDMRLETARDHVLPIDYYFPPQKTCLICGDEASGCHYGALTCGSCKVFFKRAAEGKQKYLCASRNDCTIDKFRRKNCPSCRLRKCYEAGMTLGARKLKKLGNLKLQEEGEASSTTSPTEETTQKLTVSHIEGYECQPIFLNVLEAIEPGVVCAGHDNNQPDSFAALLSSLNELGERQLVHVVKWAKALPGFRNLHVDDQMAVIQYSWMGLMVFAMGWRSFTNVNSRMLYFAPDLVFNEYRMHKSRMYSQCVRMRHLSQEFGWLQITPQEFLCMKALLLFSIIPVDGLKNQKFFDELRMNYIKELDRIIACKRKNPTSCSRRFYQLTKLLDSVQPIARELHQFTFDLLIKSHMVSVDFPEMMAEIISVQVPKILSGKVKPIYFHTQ
# [3] = antagonist mode, PR-LBD/9xGal4UAS, log10 of molar IC50, mean ± SEM, read-out: Log IC50 (converted)
# [4] = antagonist mode, PR-LBD/9xGal4UAS, log10 of molar IC50, mean ± SEM
# T1 sequence (Q92731 whole entry): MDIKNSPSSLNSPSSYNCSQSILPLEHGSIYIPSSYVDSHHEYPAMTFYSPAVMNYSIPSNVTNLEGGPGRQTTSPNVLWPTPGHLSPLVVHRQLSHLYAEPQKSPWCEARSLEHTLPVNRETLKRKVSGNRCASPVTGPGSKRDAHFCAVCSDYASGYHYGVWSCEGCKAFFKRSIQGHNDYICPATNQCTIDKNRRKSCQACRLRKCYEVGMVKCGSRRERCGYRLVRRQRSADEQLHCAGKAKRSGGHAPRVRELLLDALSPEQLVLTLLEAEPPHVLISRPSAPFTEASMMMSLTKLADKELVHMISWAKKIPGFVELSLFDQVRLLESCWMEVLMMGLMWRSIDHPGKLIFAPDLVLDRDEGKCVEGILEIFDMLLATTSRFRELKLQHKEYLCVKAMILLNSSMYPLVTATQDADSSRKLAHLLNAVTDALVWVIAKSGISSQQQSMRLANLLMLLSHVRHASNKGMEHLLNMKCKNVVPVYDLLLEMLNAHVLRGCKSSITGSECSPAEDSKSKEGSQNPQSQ
# T4 sequence (Q92731 264-498 limits assumed): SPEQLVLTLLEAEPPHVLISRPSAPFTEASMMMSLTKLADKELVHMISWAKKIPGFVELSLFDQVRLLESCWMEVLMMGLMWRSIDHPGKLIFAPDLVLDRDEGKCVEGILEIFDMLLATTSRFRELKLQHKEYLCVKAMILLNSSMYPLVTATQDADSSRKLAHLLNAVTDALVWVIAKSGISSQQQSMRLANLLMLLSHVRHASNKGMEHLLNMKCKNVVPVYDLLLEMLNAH
Structure (SMILES),EC50 (human ERβ (full-length)) [µM],IC50 (PR-LBD fused to Gal4-DBD; [3]) [µM],EC50 (PR-LBD fused to Gal4-DBD; read-out: Log EC50 (converted)) [nM],EC50 (MR-LBD fused to Gal4-DBD; read-out: Log EC50 (converted)) [µM],EC50 [1] [µM],EC50 [2] [µM],EC50 (human AR (full-length)) [µM],Log EC50 (PR-LBD fused to Gal4-DBD; PR-LBD/9xGal4UAS) [M],Log IC50 (PR-LBD fused to Gal4-DBD; [4]) [M],Log EC50 (MR-LBD fused to Gal4-DBD) [M],Log IC50 (MR-LBD fused to Gal4-DBD) [M],further results
"C[C@]12C[C@H](O)[C@H]3[C@@H](CCC4=CC(=O)CC[C@@]43C)[C@@H]1CC[C@@H]2C(=O)CO [Corticosterone, corticosterone]",> 10,> 10,72.4,2.63e-05,> 10,,,,,,,
"C[C@]12CCC(=O)C=C1CC[C@@H]1[C@@H]2[C@@H](O)C[C@]2(C=O)[C@@H](C(=O)CO)CC[C@@H]12 [Aldosterone, aldosterone]",> 10,3.72,1120,,> 10,> 10,> 10,,,,,
C[C@]12CC[C@@H]3c4ccc(O)cc4C[C@@H](CCCCCCCCC[S+]([O-])CCCC(F)(F)C(F)(F)F)[C@H]3[C@@H]1CC[C@@H]2O (stereo partly shown) [ICI 182.780],,,,,,,,> -5.00,> -5.00,> -5.00,> -5.00,Log IC50 [2]: > -5.00 M; Log EC50 [2]: > -5.00 M; Log EC50 (human AR (full-length)): > -5.00 M; Log IC50 (human AR (full-length)): > -5.00 M
"C[C@H]1C[C@H]2[C@@H]3CCC4=CC(=O)C=C[C@]4(C)[C@@]3(Cl)[C@@H](O)C[C@]2(C)[C@@]1(O)C(=O)CO [Beclomethasone, beclomethasone]",,,,,,,,-5.20 ± 0.05,> -5.00,-7.95 ± 0.10,-7.64 ± 0.10,"activity profile in words (MR-LBD fused to Gal4-DBD; MR-LBD expressing reporter cell line, agonist and antagonist mode): only weakly and partially activated; also recorded: pronounced full antagonist effect"
"C#C[C@]1(O)CC[C@H]2[C@@H]3CCC4=Cc5oncc5C[C@]4(C)[C@H]3CC[C@@]21C [Danazol, danazol]",> 10,0.692,91.2,> 10,> 10,,,,,,,
"C[C@]12C=CC(=O)C=C1CC[C@H]1[C@@H]3C[C@@H](O)[C@](O)(C(=O)CO)[C@@]3(C)C[C@H](O)[C@@]12F [Triamcinolone, triamcinolone]",,> 10,58.9,0.0759,,,,,,,,
"CCC(=O)[C@@]1(C)CC[C@H]2[C@@H]3CCC4=CC(=O)CCC4=C3CC[C@@]21C [Promegestone (R5020), promegestone]",> 10,> 10,0.0129,> 10,> 10,> 10,> 10,,,,,IC50 [2]: 407 nM
"CCCc1c(-c2ccc(O)cc2)nn(-c2ccc(O)cc2)c1-c1ccc(O)cc1 [PPT, propyl pyrazole triol]",> 10,> 10,4270,> 10,> 10,> 10,> 10,,,,,
"CC[C@@H]1Cc2cc(O)ccc2C2=C1c1ccc(O)cc1C[C@H]2CC (relative stereo) [R.R-THC, (R,R)-cis-diethyltetrahydro-2,8-chrysenediol]",,,,,,,,> -5.00,-5.52 ± 0.70,> -5.00,-5.08 ± 0.13,"Log IC50 [2]: > -5.500 M; Log EC50 [2]: > -5.00 M; Log EC50 (human ERβ (full-length); agonist mode, ERβ/3xERE, 20 h, log10 of molar EC50, mean ± SEM): > -5.00 M; Log IC50 (human ERβ (full-length); antagonist mode, ERβ/3xERE, in the presence of 1 nM E2, log10 of molar IC50, mean ± SEM): -7.30 ± 0.14 M; Log EC50 (human AR (full-length)): > -5.00 M; Log IC50 (human AR (full-length)): -5.26 ± 0.28 M; Log EC50 ([1]; agonist mode, ERβ-LBD/9xGal4UAS, 20 h, log10 of molar EC50, mean ± SEM): > -5.00 M; Log IC50 ([1]; antagonist mode, ERβ-LBD/9xGal4UAS, in the presence of 5 nM E2, log10 of molar IC50, mean ± SEM): -7.39 ± 0.15 M"
"O=c1c(-c2ccc(O)cc2)coc2cc(O)cc(O)c12 [Genistein, genistein]",,,,,,> 10,> 10,,,,,EC50 (PR-LBD fused to Gal4-DBD): > 10000 nM; IC50 (PR-LBD fused to Gal4-DBD): > 10 µM; EC50 (MR-LBD fused to Gal4-DBD): > 10 µM
